Counter-ions that a name gives are not always drawn.
Legend:
[1] = molecular target: T1, Bovine serum albumin (BSA) (Bos taurus, UniProt P02769); assay: fluorescence enhancement of bound tetracycline, modified Benesi-Hildebrand; conditions: read-out: Binding Constant (M^-1) (converted)
T1 construct: gene ALB; mature serum albumin, 17 disulfides, Trp134 and Trp213; purchased from Sigma-Aldrich
From the text: fluorescence enhancement of bound tetracycline, modified Benesi-Hildebrand on Bovine serum albumin (BSA)

[2] = molecular target: T2, Human serum albumin (HSA) (Homo sapiens, UniProt P02768); assay: as above; conditions: read-out: Binding Constant (M^-1) (converted)
T2 construct: gene ALB; mature serum albumin, 585 amino acids, 17 disulfides, single Trp214; purchased from Sigma-Aldrich
From the text: fluorescence enhancement of bound tetracycline, modified Benesi-Hildebrand on Human serum albumin (HSA)

T1 sequence (P02769 25-607): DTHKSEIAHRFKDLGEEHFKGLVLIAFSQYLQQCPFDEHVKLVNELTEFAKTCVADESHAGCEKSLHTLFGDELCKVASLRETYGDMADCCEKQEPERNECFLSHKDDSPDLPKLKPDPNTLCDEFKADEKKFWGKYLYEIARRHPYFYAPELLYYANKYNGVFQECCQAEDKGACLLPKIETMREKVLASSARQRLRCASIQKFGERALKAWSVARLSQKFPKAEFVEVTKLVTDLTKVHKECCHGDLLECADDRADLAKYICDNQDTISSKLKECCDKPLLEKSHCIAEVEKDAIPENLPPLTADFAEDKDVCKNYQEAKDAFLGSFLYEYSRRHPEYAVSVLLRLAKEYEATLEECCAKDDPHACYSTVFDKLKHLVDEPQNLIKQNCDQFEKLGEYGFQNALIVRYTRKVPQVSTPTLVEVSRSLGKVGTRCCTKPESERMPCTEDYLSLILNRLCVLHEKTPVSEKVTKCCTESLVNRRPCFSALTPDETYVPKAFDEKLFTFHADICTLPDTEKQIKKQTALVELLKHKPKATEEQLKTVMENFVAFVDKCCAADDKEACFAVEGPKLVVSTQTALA
T2 sequence (P02768 25-609): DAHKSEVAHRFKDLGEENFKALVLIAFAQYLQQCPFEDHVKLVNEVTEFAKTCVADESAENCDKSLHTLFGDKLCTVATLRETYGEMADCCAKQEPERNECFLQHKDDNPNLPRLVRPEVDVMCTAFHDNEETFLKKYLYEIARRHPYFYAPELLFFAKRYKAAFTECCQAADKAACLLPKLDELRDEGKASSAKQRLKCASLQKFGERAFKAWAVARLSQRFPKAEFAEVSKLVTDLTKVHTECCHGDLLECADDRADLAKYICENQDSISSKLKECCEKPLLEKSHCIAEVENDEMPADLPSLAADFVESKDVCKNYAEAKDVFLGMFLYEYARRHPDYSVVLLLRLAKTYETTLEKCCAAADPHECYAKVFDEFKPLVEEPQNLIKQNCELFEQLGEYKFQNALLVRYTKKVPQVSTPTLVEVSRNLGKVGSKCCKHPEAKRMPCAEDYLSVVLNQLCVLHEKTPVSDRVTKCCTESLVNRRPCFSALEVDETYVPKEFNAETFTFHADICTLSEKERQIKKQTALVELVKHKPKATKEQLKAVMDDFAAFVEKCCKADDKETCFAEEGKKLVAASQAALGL

## CN(C)[C@@H]1C(O)=C(C(N)=O)C(=O)[C@@]2(O)C(O)=C3C(=O)c4c(O)cccc4[C@@](C)(O)[C@H]3C[C@@H]12 [Tetracycline hydrochloride]
[1]
  Kd: 21.2 µM
[2]
  Kd: 31.8 µM
